Results reported in ChEMBL document CHEMBL1122733, “Synthesis and beta-adrenergic blocking activity of new aliphatic and alicyclic oxime ethers” (J Med Chem, 1984).

experiment: Compound was evaluated for pKa value by potentiometric titration; format: physicochemical

| SMILES | pKa |
| --- | --- |
| CC(OCC(O)CNC(C)(C)C)C1CC1 (stereo unspecified) | 9.76 |
| C/C(CC1CC1)=N/OCC(O)CNC(C)(C)C (stereo unspecified) | 9.57 |
| CC(NOCC(O)CNC(C)(C)C)C1CC1 (stereo unspecified) | 9.1 |
| CC(C)OCC(O)CNC(C)(C)C (stereo unspecified) | 9.9 |
| CC(C)(C)NCC(O)CO/N=C\C1CC1 (stereo unspecified) | 9.64 |
| CC(C)COCC(O)CNC(C)(C)C (stereo unspecified) | 9.73 |
| CC(C)(C)NCC(O)COC(C1CC1)C1CC1 (stereo unspecified) | 9.63 |
| CC(C)(C)COCC(O)CNC(C)(C)C (stereo unspecified) | 9.68 |
| CC1C/C(=N/OCC(O)CNC(C)(C)C)CC(C)(C)C1 (stereo unspecified) | 9.41 |

Next, values leading:

| pKa | SMILES |
| --- | --- |
| 9.73 | CC(C)(C)NCC(O)COCC1CC1 (stereo unspecified) |
| 9.27 | C/C(=N/OCC(O)CNC(C)(C)C)C(C)C (stereo unspecified) |
| 9.67 | C=CC(C)(C)OCC(O)CNC(C)(C)C (stereo unspecified) |
| 9.64 | CC(C)(C)NCC(O)CON=C(C1CC1)C1CC1 (stereo unspecified) |
| 9.45 | C/C(=N/OCC(O)CNC(C)(C)C)C1CC1 (stereo unspecified) |
| 9.94 | CC1CC(OCC(O)CNC(C)(C)C)CC(C)(C)C1 (stereo unspecified) |
| 9.42 | CC(C)=NOCC(O)CNC(C)(C)C (stereo unspecified) |
